Experimental data published in US7811352B2, “Fertilizer compositions and methods of using” (priority 2005, dated 2010).
Marks after values point to notes of the source that are not given here.

How the values were obtained:
Assay type in all cases: in vivo
[1] = tested on: green height, creeping bentgrass; test: Injury rating of green height creeping bentgrass after fertilization (Example 4); conditions: about two weeks after application
Description: In this Example, the efficacy of fertilizers on green height, creeping bentgrass was examined. Fertilizer compositions according to several embodiments of the present disclosure were prepared and compared to the commercial fertilizer products, urea 46-0-0 (granular) fertilizer, Lebanon fertilizer 21-0-12 (granular, commercially available from Lebanon Seaboard Corporation, Lebanon, Pa.) and Milorganite 6-2-0 (granular, commercially available from Milorganite, Milwaukee, Wis.). The fertilizer compositions were applied to the turf grass prior to winter dormancy of the turf at a rate equivalent to supplying about 1.0 pounds of nitrogen (N) per 1000 square feet. Each of the fertilizer compositions were applied at substantially equal rates of pounds (lbs) of nitrogen (N) per 1000 square feet. Table 1 illustrates the response of green height (i.e., the height of grass on golf course green), creeping bentgrass to fertilization using various exemplary fertilizers of the present invention, taken about two weeks after application of the fertilizer. The letters in the Color and Injury columns correspond to Duncan's Multiple Range Test. Numbers (means) in a column followed by the same letter are not statistically different at P=0.05.

[2] = tested on: lawn height, Kentucky bluegrass; test: Color rating of lawn height Kentucky bluegrass after fertilization (Example 5); conditions: about two weeks after application
Description: In this Example, the efficacy of fertilizers on lawn height, Kentucky bluegrass was examined. Fertilizer compositions according to several embodiments of the present disclosure were prepared and compared to the commercial fertilizer products, urea 46-0-0 (granular) fertilizer, Lebanon fertilizer 21-0-12 (granular, commercially available from Lebanon Seaboard Corporation, Lebanon, Pa.) and Milorganite 6-2-0 (granular, commercially available from Milorganite, Milwaukee, Wis.). The fertilizer compositions were applied to the turf grass prior to winter dormancy at a rate equivalent to supplying about 1.0 pounds of nitrogen (N) per 1000 square feet. Each of the fertilizer compositions were applied at substantially equal rates of lbs of nitrogen (N) per 1000 square feet. Table 2 illustrates the response of lawn height, Kentucky bluegrass to fertilization using various exemplary fertilizers of the present invention, taken about two weeks after application of the fertilizer. The letters in the Color and Injury columns correspond to Duncan's Multiple Range Test.

Bermuda grass = test: Turfgrass quality and color ratings, Bermuda grass golf course fairways (Example 13); conditions: scale 1-10
Description: In this Example, the effect of a fertilizer comprising lysine on turfgrass growth was examined. The effects of lysine (HCl) and LIQUID LYSINE on a common type of golf course fairway quality turfgrass (Bermuda green) were compared with those of CoRoN® brand fertilizer.
Six fertilizer treatments comprising two concentrations of each fertilizer composition (Coron® (N—P—K, 14-2-14), LIQUID LYSINE (N—P—K, 10-2-1), and lysine (HCl) (N—P—K, 15-2-1)) were prepared and applied to 3 replications of Bermuda grass for use on golf course fairways. The lysine (HCl) was applied as a granular using a Scotts 2 foot drop spreader on a setting of 4.5. The solutions of LIQUID LYSINE and Coran were applied using a Birchmeier backpack sprayer with a 5 foot spray pattern. Each fertilizer treatment was applied in concentrations 3.0 lb N/1000 ft^2 and 6.0 lb N/1000 ft^2. Plot size was 5 ft×60 ft set up as a randomized complete block. Irrigation was applied following application, Plots were rated for turfgrass quality and color (scale of 1-10 where 10=dark green turf 1=dead/brown turf and 6=minimally acceptable turf) and phytotoxicity (% burn) throughout the study period and compared with two untreated plots. […] All data was subject to statistical analysis and significant means were determined.

[3] = tested on: rhizomatous tall fescue grass; test: Phytotoxicity (% burn), rhizomatous tall fescue (Example 14)
Description: In this Example, the effect of a fertilizer comprising lysine on turfgrass growth was examined. The effects of lysine (HCl) and LIQUID LYSINE on a common type of lawn quality turfgrass (rhizomatous tall fescue) were compared with those of CoRoN® brand fertilizer.
Six fertilizer treatments comprising two concentrations of each fertilizer composition (Coron® (N—P—K, 14-2-34), LIQUID LYSINE (N—P—K, 10-2-1), and lysine (HCl) (N—P—K, 15-2-1)) were prepared and applied to 3 replications of rhizomatous tall fescue grass. The solutions of lysine (HCl) (dissolved in 0.5 gal water), LIQUID LYSINE and Coran were applied using a Birchmeier backpack sprayer with a 5 foot spray pattern, Each fertilizer treatment was applied in either a 3-split application with an application rate of 2 lb N/1000 ft^2 or a 6-split application with an application rate of 1 lb N/1000 ft^2. Plot size was 9 ft×9 ft set up as a randomized complete block. Irrigation was applied following application. Plots were rated for turfgrass quality and color (scale of 1-10 where 10=dark green turf, 1 =dead/brown turf, and 6=minimally acceptable turf and phytotoxicity (% burn) throughout the study period and compared with two untreated plots. Quality, color, and phytotoxicity were measured on day 7, day 14, day 21, day 28, day 35, and day 42 after application. All data was subject to statistical analysis and significant means were determined. Average turfgrass quality ratings for the treatments are presented in Table 21. Average turfgrass color ratings are presented in Table 22. Average phytotoxicity ratings (as % burn) are presented in Table 23.

[4] = 1.09 Lbs. product/1000 square feet
[5] = 2.17 Lbs. product/1000 square feet
[6] = 6.51 Lbs. product/1000 square feet
[7] = Rate 3.0 lb N/1000 ft^2, Day 12
[8] = Rate 3.0 lb N/1000 ft^2, Day 19
[9] = Rate 3.0 lb N/1000 ft^2, Day 26
[10] = Rate 3.0 lb N/1000 ft^2, Day 33
[11] = Rate 3.0 lb N/1000 ft^2, Day 40
[12] = Rate 3.0 lb N/1000 ft^2, Day 47
[13] = Rate 6.0 lb N/1000 ft^2, Day 12
[14] = Rate 6.0 lb N/1000 ft^2, Day 19
[15] = Rate 6.0 lb N/1000 ft^2, Day 26
[16] = Rate 6.0 lb N/1000 ft^2, Day 33
[17] = Rate 6.0 lb N/1000 ft^2, Day 40
[18] = Rate 6.0 lb N/1000 ft^2, Day 47

NC(N)=O [Urea, urea, reference compound]
Injury 1-9 (9 = no injury) [1, 4]: 8.0^a,b,c | Injury 1-9 (9 = no injury) [1, 5]: 8.7^a | Injury 1-9 (9 = no injury) [1, 6]: 8.3^a,b | Color 1-9 (9 = dark green) [2, 4]: 7.0 | Color 1-9 (9 = dark green) [2, 5]: 7.3 | Color 1-9 (9 = dark green) [2, 6]: 7.7

Cl.NCCCC[C@H](N)C(=O)O [Lys (HCl) 15% N, L-lysine monohydrochloride]
Color Ratings - Bermuda Grass (Bermuda grass; Rate 3.0 lb N/1000 ft^2, Day 7): 5.7ab | Quality Ratings - Bermuda Grass (Bermuda grass; Rate 3.0 lb N/1000 ft^2, Day 7): 6.7a | Color Ratings - Bermuda Grass (Bermuda grass; [7]): 6.0b | Quality Ratings - Bermuda Grass (Bermuda grass; [7]): 7.3ab | Color Ratings - Bermuda Grass (Bermuda grass; [8]): 6.7a | Quality Ratings - Bermuda Grass (Bermuda grass; [8]): 7.3ab | Color Ratings - Bermuda Grass (Bermuda grass; [9]): 7.3a | Quality Ratings - Bermuda Grass (Bermuda grass; [9]): 7.7ab | Color Ratings - Bermuda Grass (Bermuda grass; [10]): 7.7ab | Quality Ratings - Bermuda Grass (Bermuda grass; [10]): 8.0a | Color Ratings - Bermuda Grass (Bermuda grass; [11]): 7.0b | Quality Ratings - Bermuda Grass (Bermuda grass; [11]): 7.0b | Color Ratings - Bermuda Grass (Bermuda grass; [12]): 7.0bc | Quality Ratings - Bermuda Grass (Bermuda grass; [12]): 7.3ab | Color Ratings - Bermuda Grass (Bermuda grass; Rate 6.0 lb N/1000 ft^2, Day 7): 5.3ab | Quality Ratings - Bermuda Grass (Bermuda grass; Rate 6.0 lb N/1000 ft^2, Day 7): 6.7a | Color Ratings - Bermuda Grass (Bermuda grass; [13]): 6.7a | Quality Ratings - Bermuda Grass (Bermuda grass; [13]): 7.3ab | Color Ratings - Bermuda Grass (Bermuda grass; [14]): 7.0a | Quality Ratings - Bermuda Grass (Bermuda grass; [14]): 7.3ab | Color Ratings - Bermuda Grass (Bermuda grass; [15]): 7.7a | Quality Ratings - Bermuda Grass (Bermuda grass; [15]): 7.7ab | Color Ratings - Bermuda Grass (Bermuda grass; [16]): 7.7ab | Quality Ratings - Bermuda Grass (Bermuda grass; [16]): 7.7a | Color Ratings - Bermuda Grass (Bermuda grass; [17]): 7.3ab | Quality Ratings - Bermuda Grass (Bermuda grass; [17]): 7.0b | Color Ratings - Bermuda Grass (Bermuda grass; [18]): 7.3ab | Quality Ratings - Bermuda Grass (Bermuda grass; [18]): 7.7a | Phytotoxicity (% Burn) - Tall fescue grass ([3]; 3-split, 2.0 lb N/1000 ft^2, Day 7): 15.0b % | Phytotoxicity (% Burn) - Tall fescue grass ([3]; 3-split, 2.0 lb N/1000 ft^2, Day 14): 6.7b % | Phytotoxicity (% Burn) - Tall fescue grass ([3]; 3-split, 2.0 lb N/1000 ft^2, Day 21): 1.7b % | Phytotoxicity (% Burn) - Tall fescue grass ([3]; 3-split, 2.0 lb N/1000 ft^2, Day 28): 0.0a % | Phytotoxicity (% Burn) - Tall fescue grass ([3]; 3-split, 2.0 lb N/1000 ft^2, Day 35): 0.0a % | Phytotoxicity (% Burn) - Tall fescue grass ([3]; 6-split, 1.0 lb N/1000 ft^2, Day 7): 10.0c % | Phytotoxicity (% Burn) - Tall fescue grass ([3]; 6-split, 1.0 lb N/1000 ft^2, Day 14): 1.7bc % | Phytotoxicity (% Burn) - Tall fescue grass ([3]; 6-split, 1.0 lb N/1000 ft^2, Day 21): 0.0b % | Phytotoxicity (% Burn) - Tall fescue grass ([3]; 6-split, 1.0 lb N/1000 ft^2, Day 28): 0.0a % | Phytotoxicity (% Burn) - Tall fescue grass ([3]; 6-split, 1.0 lb N/1000 ft^2, Day 35): 0.0a %
